Data taken from PubChem BioAssay (NCI).
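Method: 48-hour compound exposure of cells in 96-well plates, five concentrations, linear interpolation of endpoints. Here, GI50 denotes the concentration required for 50% inhibition of growth. Definition used: TGI = concentration required for complete inhibition of growth.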

Columns and labels:
Test in all cases: growth of human tumour cells (NCI), 48 h
SF-539 CNS = test system: SF-539 CNS
NCI-H226 lung = test system: NCI-H226 lung
PC-3 prostate = test system: PC-3 prostate
COLO 205 colon = test system: COLO 205 colon
UACC-62 melanoma = test system: UACC-62 melanoma
SK-MEL-28 melanoma = test system: SK-MEL-28 melanoma
EKVX NSCLC = test system: EKVX NSCLC
RXF 393 renal = test system: RXF 393 renal
MDA-MB-231 breast = test system: MDA-MB-231 breast
CAKI-1 renal = test system: CAKI-1 renal
SK-MEL-5 melanoma = test system: SK-MEL-5 melanoma
KM12 colon = test system: KM12 colon
MALME-3M melanoma = test system: MALME-3M melanoma
OVCAR-4 ovarian = test system: OVCAR-4 ovarian
M14 melanoma = test system: M14 melanoma
T-47D breast = test system: T-47D breast
SW-620 colon = test system: SW-620 colon
A498 renal = test system: A498 renal
OVCAR-5 ovarian = test system: OVCAR-5 ovarian
HOP-92 NSCLC = test system: HOP-92 NSCLC
HT29 colon = test system: HT29 colon
NCI-H460 lung = test system: NCI-H460 lung
SNB-19 CNS = test system: SNB-19 CNS
SF-295 CNS = test system: SF-295 CNS
SF-268 CNS = test system: SF-268 CNS
NCI-H23 lung = test system: NCI-H23 lung
CCRF-CEM leukemia = test system: CCRF-CEM leukemia
OVCAR-8 ovarian = test system: OVCAR-8 ovarian
HS 578T breast = test system: HS 578T breast
SK-MEL-2 melanoma = test system: SK-MEL-2 melanoma
SK-OV-3 ovarian = test system: SK-OV-3 ovarian
BT-549 breast = test system: BT-549 breast
ACHN renal = test system: ACHN renal
MDA-MB-435 = test system: MDA-MB-435
HOP-62 NSCLC = test system: HOP-62 NSCLC
UO-31 renal = test system: UO-31 renal
IGROV1 ovarian = test system: IGROV1 ovarian
SN12C renal = test system: SN12C renal
OVCAR-3 ovarian = test system: OVCAR-3 ovarian
RPMI-8226 leukemia = test system: RPMI-8226 leukemia
UACC-257 melanoma = test system: UACC-257 melanoma
NCI-H522 lung = test system: NCI-H522 lung
A549 NSCLC = test system: A549 NSCLC
SNB-75 CNS = test system: SNB-75 CNS
U251 CNS = test system: U251 CNS
HCC-2998 colon = test system: HCC-2998 colon
HCT-116 colon = test system: HCT-116 colon
786-0 renal = test system: 786-0 renal
HCT-15 colon = test system: HCT-15 colon
DU-145 prostate = test system: DU-145 prostate
HL-60(TB) leukemia = test system: HL-60(TB) leukemia
MCF7 breast = test system: MCF7 breast
NCI/ADR-RES ovarian = test system: NCI/ADR-RES ovarian
MOLT-4 leukemia = test system: MOLT-4 leukemia
TK-10 renal = test system: TK-10 renal

CCCCCCCCCCCCCC1=NC(C)(C)CN1C(C)C
GI50 (SF-539 CNS): 1650 nM | TGI (SF-539 CNS): 3010 nM | GI50 (NCI-H226 lung): 1720 nM | TGI (NCI-H226 lung): 3510 nM | GI50 (PC-3 prostate): 1340 nM | TGI (PC-3 prostate): 3030 nM | GI50 (COLO 205 colon): 1410 nM | TGI (COLO 205 colon): 2710 nM | GI50 (UACC-62 melanoma): 1740 nM | TGI (UACC-62 melanoma): 3200 nM | GI50 (SK-MEL-28 melanoma): 1740 nM | TGI (SK-MEL-28 melanoma): 3110 nM | GI50 (EKVX NSCLC): 1490 nM | TGI (EKVX NSCLC): 3170 nM | GI50 (RXF 393 renal): 1620 nM | TGI (RXF 393 renal): 3110 nM | GI50 (MDA-MB-231 breast): 1520 nM | TGI (MDA-MB-231 breast): 2890 nM | GI50 (CAKI-1 renal): 1360 nM | TGI (CAKI-1 renal): 2840 nM | GI50 (SK-MEL-5 melanoma): 1670 nM | TGI (SK-MEL-5 melanoma): 3030 nM | GI50 (KM12 colon): 1650 nM | TGI (KM12 colon): 3010 nM | GI50 (MALME-3M melanoma): 1700 nM | TGI (MALME-3M melanoma): 3410 nM | GI50 (OVCAR-4 ovarian): 1760 nM | TGI (OVCAR-4 ovarian): 3480 nM | GI50 (M14 melanoma): 1720 nM | TGI (M14 melanoma): 3090 nM | GI50 (T-47D breast): 1840 nM | TGI (T-47D breast): 3800 nM | GI50 (SW-620 colon): 1580 nM | TGI (SW-620 colon): 2920 nM | GI50 (A498 renal): 2160 nM | TGI (A498 renal): 4580 nM | GI50 (OVCAR-5 ovarian): 1680 nM | TGI (OVCAR-5 ovarian): 3050 nM | GI50 (HOP-92 NSCLC): 655 nM | TGI (HOP-92 NSCLC): 2190 nM | GI50 (HT29 colon): 422 nM | TGI (HT29 colon): 1470 nM | GI50 (NCI-H460 lung): 1890 nM | TGI (NCI-H460 lung): 3300 nM | GI50 (SNB-19 CNS): 1790 nM | TGI (SNB-19 CNS): 3180 nM | GI50 (SF-295 CNS): 1620 nM | TGI (SF-295 CNS): 3150 nM | GI50 (SF-268 CNS): 1760 nM | TGI (SF-268 CNS): 3140 nM | GI50 (NCI-H23 lung): 1670 nM | TGI (NCI-H23 lung): 3110 nM | GI50 (CCRF-CEM leukemia): 1540 nM | TGI (CCRF-CEM leukemia): 3430 nM | GI50 (OVCAR-8 ovarian): 1780 nM | TGI (OVCAR-8 ovarian): 3420 nM | GI50 (HS 578T breast): 1790 nM | TGI (HS 578T breast): 3860 nM | GI50 (SK-MEL-2 melanoma): 1880 nM | TGI (SK-MEL-2 melanoma): 3390 nM | GI50 (SK-OV-3 ovarian): 1790 nM | TGI (SK-OV-3 ovarian): 3170 nM | GI50 (BT-549 breast): 2330 nM | TGI (BT-549 breast): 6000 nM | GI50 (ACHN renal): 1640 nM | TGI (ACHN renal): 2990 nM | GI50 (MDA-MB-435): 1510 nM | TGI (MDA-MB-435): 3080 nM | GI50 (HOP-62 NSCLC): 1730 nM | TGI (HOP-62 NSCLC): 3170 nM | GI50 (UO-31 renal): 1390 nM | TGI (UO-31 renal): 2690 nM | GI50 (IGROV1 ovarian): 1080 nM | TGI (IGROV1 ovarian): 2260 nM | GI50 (SN12C renal): 1590 nM | TGI (SN12C renal): 2980 nM | GI50 (OVCAR-3 ovarian): 1480 nM | TGI (OVCAR-3 ovarian): 2800 nM | GI50 (RPMI-8226 leukemia): 1200 nM | TGI (RPMI-8226 leukemia): 3030 nM | GI50 (UACC-257 melanoma): 1920 nM | TGI (UACC-257 melanoma): 3390 nM | GI50 (NCI-H522 lung): 1580 nM | TGI (NCI-H522 lung): 2970 nM | GI50 (A549 NSCLC): 1760 nM | TGI (A549 NSCLC): 3250 nM | GI50 (SNB-75 CNS): 1640 nM | TGI (SNB-75 CNS): 3000 nM | GI50 (U251 CNS): 1640 nM | TGI (U251 CNS): 3000 nM | GI50 (HCC-2998 colon): 1410 nM | TGI (HCC-2998 colon): 2740 nM | GI50 (HCT-116 colon): 1380 nM | TGI (HCT-116 colon): 2680 nM | GI50 (786-0 renal): 1720 nM | TGI (786-0 renal): 3130 nM | GI50 (HCT-15 colon): 1320 nM | TGI (HCT-15 colon): 2590 nM | GI50 (DU-145 prostate): 1700 nM | TGI (DU-145 prostate): 3060 nM | GI50 (HL-60(TB) leukemia): 1090 nM | TGI (HL-60(TB) leukemia): 2720 nM | GI50 (MCF7 breast): 1670 nM | TGI (MCF7 breast): 3130 nM | GI50 (NCI/ADR-RES ovarian): 1670 nM | TGI (NCI/ADR-RES ovarian): 3510 nM | GI50 (MOLT-4 leukemia): 1560 nM | TGI (MOLT-4 leukemia): 3260 nM | GI50 (TK-10 renal): 1580 nM | TGI (TK-10 renal): 3000 nM
